2 molecules from PMC8637440, “Structural Modifications Yield Novel Insights Into the Intriguing Pharmacodynamic Potential of Anti-inflammatory Nitro-Fatty Acids” (Frontiers in Pharmacology, 2021) can be followed below.

In experiment [1] the target is T1, recombinant firefly luciferase (Photinus pyralis, UniProt P08659).
T1 construct: purchased Sigma-Aldrich
The experiment can be described thus: Firefly luciferase activity assay. It is filed as biochemical. The conditions noted are these: 15 min at 37°C. As to the method:
Recombinant firefly luciferase (Sigma-Aldrich, St. Louis, Missouri, United States) was diluted to 10^4 U/mg in 1× PBS (phosphate buffered saline) and subsequently incubated with NFA or the substances of interest for 15 min at 37°C. Afterwards, 50 µl per reaction mix was transferred into a white 96-well plate, to which 50 µl/well Dual-Glo® (Promega, Madison, Wisconsin, United States) was added and incubated for another 10 min at 37°C. Luminescence was analyzed with a plate reader.
Suppl. Figure 1: Fatty acids interfere with firefly luciferase making the luc-based assays not suitable for analysis of signaling pathways modulated by NFA. 10 4 units of firefly luciferase were incubated with 1 µM and 10 µM OA or NFA with different carbon chain length (A) and Michael acceptor position (B) for 15 min at 37°C. Firefly activity is presented as percentage of vehicle control (DMSO) mean + SD, n=5. Compared to vehicle control statistical significance was calculated by one-way ANOVA with Bonferroni post-test. P-values of **P ≦0.0021, **** P ≦0.0001 are considered significant. DMSO, dimethyl sulfoxide; 9NOA, 9-nitro oleic acid; NFA, nitro-fatty acids, OA, oleic acid. […]

The target of another experiment is T2, 5-LO (Homo sapiens, UniProt P09917).
T2 construct: endogenous in cells; host or cells: human PMNL from buffy coats
T2 sequence (P09917 1-674): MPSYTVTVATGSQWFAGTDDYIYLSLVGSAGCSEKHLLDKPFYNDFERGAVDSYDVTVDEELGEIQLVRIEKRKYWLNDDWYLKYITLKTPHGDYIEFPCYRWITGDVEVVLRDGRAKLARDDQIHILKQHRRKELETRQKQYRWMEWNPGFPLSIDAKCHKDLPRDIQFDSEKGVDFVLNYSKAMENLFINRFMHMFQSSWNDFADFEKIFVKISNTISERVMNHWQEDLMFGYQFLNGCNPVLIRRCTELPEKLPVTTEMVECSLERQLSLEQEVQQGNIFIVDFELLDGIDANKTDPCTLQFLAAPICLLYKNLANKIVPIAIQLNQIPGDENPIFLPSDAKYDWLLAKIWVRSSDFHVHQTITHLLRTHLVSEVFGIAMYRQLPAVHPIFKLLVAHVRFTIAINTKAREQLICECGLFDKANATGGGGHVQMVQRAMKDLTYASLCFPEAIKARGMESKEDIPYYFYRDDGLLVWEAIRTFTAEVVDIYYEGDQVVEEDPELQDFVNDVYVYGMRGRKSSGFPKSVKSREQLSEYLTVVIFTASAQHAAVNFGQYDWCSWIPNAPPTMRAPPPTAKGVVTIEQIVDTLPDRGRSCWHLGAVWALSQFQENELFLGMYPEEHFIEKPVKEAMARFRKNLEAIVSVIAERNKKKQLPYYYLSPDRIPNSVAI
The experiment can be described thus: 5-LO product formation (LTB4, 5-HETE) in intact PMNL, A23187 in absence of AA. Type of experiment: cell-based. The protocol: Buffy coats from different donors of different blood types were commercially obtained from DRK Blutspendedienst Baden-Württemberg Institute Frankfurt. Donors have given their written consent. To avoid initial blood clotting only buffy coats from one donor or several donors with the same blood type were combined and diluted with 1× PBS mixed with 5% dextran solution and allowed to stand for 30 min at RT to separate the erythrocytes. Following separation, the supernatant was transferred very gently to new 50-ml tubes containing lymphocyte separation medium (LSM) and centrifuged for 10 min at 800 ×g at RT with the centrifuge brake turned off. Afterwards, the supernatant was decanted carefully to discard the platelets and monocytes. The PMNL were washed with 1× PBS before the residual erythrocytes were lysed in two cycles: the cell pellet was resuspended with 10 ml H2O and vortexed for 45 s, and lysis was stopped with 40 ml 1 × PBS. After 10-min centrifugation at 200 ×g at RT, the cycle was repeated once. The supernatant was aspirated, the cell pellet resuspended in 5 ml PBS/glucose and initially separated PMNL preparations with different blood types were finally pooled to gain a sufficient number of cells.
5-LO activity in intact cells was assayed by measuring LTB4 (leukotriene B4) and 5-HETE (5-hydroxyeicosatetraenoic acid) levels in the PMNL supernatants. […] Recombinant 5-LO enzyme activity was assessed by the determination of 5-HETE levels representing a direct product assay. In the cell-based LO activity assays, 5 × 10^6 cells per ml PBS/glucose were transferred to 5 ml glass tubes containing 1 mM CaCl2 and stored on ice. […] […] Recombinant 5-LO activity assays were carried out using 3 µg r5LO-wt enzyme. The enzyme was diluted in PBS/EDTA/ATP, transferred into 5-ml glass tubes, and stored on ice. […] The samples were then pre-heated at 37°C in a water bath and subsequently stimulated with 1 mM CaCl2 and 20 µM AA for 10 min at 37°C. The reaction was stopped by placing the glass tubes on ice. The supernatants were transferred to 1.5 ml reaction tubes and stored at −80°C before LC-MS (liquid chromatography and mass spectrometry) analysis of LTB4 and HETEs as described in 2.6 at the Institute of Pharmacology, Goethe University, University Hospital, Germany.
For experiments shown in Table 4 samples after treatment were supplemented with 500 µl PBS, 30 µl HCl (1 N), and 200 ng internal standard prostaglandin B1. Those samples containing intact cells were centrifuged for 10 min (870 g, room temperature). […] The eluate was diluted with 125 µl H2O and analyzed by reverse-phase HPLC as previously described ([Steinhilber et al., 1989]). […] Unless otherwise stated, 5-LO metabolites 6-trans-LTB4, 12-epi-6-trans-LTB4, LTB4, and 5-H(p)ETE were quantified.

Where [2] appears, read: read-out: PMNL (w/o AA) 5-HETE IC50.
Where [3] appears, read: read-out: PMNL (w/o AA) LTB4 IC50.

Like-named read-outs stand apart in the source and are kept apart here. Some results are limits rather than exact numbers.

T1 sequence (P08659 whole entry): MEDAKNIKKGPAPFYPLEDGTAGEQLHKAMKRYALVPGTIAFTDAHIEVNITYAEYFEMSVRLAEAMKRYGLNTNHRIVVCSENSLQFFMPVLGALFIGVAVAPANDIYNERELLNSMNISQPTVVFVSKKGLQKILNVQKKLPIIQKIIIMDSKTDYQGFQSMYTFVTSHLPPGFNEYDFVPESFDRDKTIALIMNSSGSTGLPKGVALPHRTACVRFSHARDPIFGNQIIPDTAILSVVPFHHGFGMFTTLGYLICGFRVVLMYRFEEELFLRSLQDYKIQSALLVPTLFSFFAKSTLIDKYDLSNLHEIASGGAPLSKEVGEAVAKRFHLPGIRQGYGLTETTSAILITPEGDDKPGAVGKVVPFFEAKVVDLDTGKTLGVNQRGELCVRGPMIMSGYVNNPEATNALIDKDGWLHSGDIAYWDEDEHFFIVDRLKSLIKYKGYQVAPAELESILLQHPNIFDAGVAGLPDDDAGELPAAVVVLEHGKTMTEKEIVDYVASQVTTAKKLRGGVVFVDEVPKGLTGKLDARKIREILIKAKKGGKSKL

A word on the inhibition: it is the share of the control response that was lost under treatment. Take `CCCCCCCCC=C(CCCCCCCC(=O)O)[N+](=O)[O-]` [18.9.9, 9-nitro-octadec-9-enoic acid]: the inhibition at 1 µM in experiment [1] (1 µM) was over 50%. Also, in experiment [1] (10 µM), the “inhibition of recombinant firefly luciferase” value is “complete inhibition”. The IC50 is 2.34 ± 1.5 µM on 5-LO (setting [2]) and 2.58 ± 1.4 µM at 5-LO (setting [3]).
Consider `CCCCCCCCCCC=C(CCCCCCCC(=O)O)[N+](=O)[O-]` [20.9.9, 9-nitro-eicos-9-enoic acid], for which the figures for the IC50 on 5-LO (setting [2]) and on 5-LO (setting [3]) were 2.06 ± 1.34 µM and 2.05 ± 1.25 µM, respectively.
